Reference: patent US9932355B2, “2,5,6,7-tetrasubstituted thiazolo[4,5-b]pyridine derivatives and use thereof” (KYUNGPOOK NATIONAL UNIVERSITY INDUSTRY-ACADEMIC COOPERATION …, priority 2014, dated 2018)

Test system: CLP-induced sepsis mouse model
Assay: Survival rate of CLP-induced sepsis mouse model
Format: in vivo
Details: male ICR mice, CLP surgery; tail intravenous injection 12 and 50 hours after surgery; FIG. 1
Procedure: An anti-inflammation effect of the prepared compound was tested by a survival rate of the sepsis mouse model induced by peritonitis. A CLP-induced sepsis mouse model is an in vivo method for investigating an anti-inflammation action, and the manufacturing method of the mouse model is a widely used experiment method [Wang H, Nat. Med., 2004, 10, 1216-1221]. 40 six-week-old male ICR mice were divided into 10 mice per each group, and the survival rate was observed.
First, after the male mouse was anesthetized by respiration using isoflurane, the abdomen of the mouse was cut in the middle by approximately 2 cm to take out an appendix adjacent to intestines, and the appendix was tied up at a part apart from 0.5 mm from the end of the appendix with a 3.0-silk suture, pierced once with a 22-gauge needle, and sutured the cut part with a 4.0 silk suture. An abdomen of a sham mouse was cut and sutured without tie-up or piercing of the appendix, and after 12 and 50 hours of the surgery, the prepared compound was administered by mouse tail intravenous injection.

SMILES: COc1ccc(CNc2nc3nc4c(c(-c5ccc(OC)cc5)c3s2)CCCC4)cc1 [Compound 1-65, N-(4-methoxybenzyl)-9-(4-methoxyphenyl)-5,6,7,8-tetrahydrothiazolo[4,5-b]quinoline-2-amine]
- survival rate increased, compared to the only CLP-treated group: 60%
